Data taken from patent US20220081470A1, “THIAZOLYL PEPTIDES FOR THE TREATMENT NONTUBERCULOUS MYCOBACTERIAL INFECTIONS” (priority 2019, published 2022).
In brackets after ≈: the same amount, converted by molar mass. Read-outs that look alike come from different tables or passages of the source.

Columns and labels:
[1] = system: M. gordonae; experiment: In vitro drug combination study, checkerboard method; format: cell-based, Mycobacterium gordonae; conditions: for MIC: Mycobacterium gordonae, 144 h, drug alone, checkerboard, read-out: Individual MIC; for FIC index / Outcome: in combination with PM181108A
[2] = system: Mycobacterium nonchromogenicum; experiment: Minimum Bactericidal Concentration (MBC); format: cell-based; conditions: Mycolicibacter nonchromogenicus
[3] = system: Mycobacterium avium; experiment: Minimum Bactericidal Concentration (MBC); format: cell-based; conditions: M.avium
[4] = system: M. avium; experiment: In vitro drug combination study, checkerboard method; format: cell-based, Mycobacterium avium; conditions: for MIC: Mycobacterium avium, 144 h, drug alone, checkerboard, read-out: Individual MIC; for FIC index / Outcome: in combination with PM181108A
[5] = system: Mycobacterium intracellulare; experiment: MIC by broth dilution (CLSI M24), resazurin readout; format: cell-based; conditions: M.intracellulare
[6] = system: Mycobacterium gordonae; experiment: Minimum Bactericidal Concentration (MBC); format: cell-based; conditions: M.gordonae
[7] = system: Mycobacterium fortuitum; experiment: MIC by broth dilution (CLSI M24), resazurin readout; format: cell-based; conditions: Mycolicibacterium fortuitum; M.fortuitum
[8] = system: Mycobacterium intracellulare; experiment: Minimum Bactericidal Concentration (MBC); format: cell-based; conditions: M.intracellulare
[9] = system: Mycobacterium kansasii; experiment: Minimum Bactericidal Concentration (MBC); format: cell-based; conditions: M.kansasii
[10] = system: Mycobacterium kansasii; experiment: MIC by broth dilution (CLSI M24), resazurin readout; format: cell-based; conditions: M.kansasii
[11] = system: Mycobacterium fortuitum; experiment: Minimum Bactericidal Concentration (MBC); format: cell-based; conditions: Mycolicibacterium fortuitum; M.fortuitum
[12] = system: Mycobacterium abscessus; experiment: Minimum Bactericidal Concentration (MBC); format: cell-based; conditions: Mycobacteroides abscessus; M.abscessess
[13] = system: Mycobacterium gordonae; experiment: MIC by broth dilution (CLSI M24), resazurin readout; format: cell-based; conditions: M.gordonae
[14] = system: Mycobacterium abscessus; experiment: as above; format: cell-based; conditions: Mycobacteroides abscessus; M.abscessess
[15] = system: Mycobacterium avium; experiment: as above; format: cell-based; conditions: M.avium
[16] = system: Mycobacterium nonchromogenicum; experiment: as above; format: cell-based; conditions: Mycolicibacter nonchromogenicus
[17] = system: M. fortuitum in THP-1 macrophages; experiment: Intracellular efficacy in THP-1 macrophages; format: cell-based, Mycobacterium fortuitum
Experimental: (§1) To test drug efficacy against slow or non-replicating bacilli in the intracellular compartment, THP-1 cells were grown in RPMI medium supplemented with […] sodium pyruvate, 200 mM L-glutamine, 3.7 g of sodium bicarbonate (Sigma) per litre, and 10% foetal calf serum (Gibco-BRL Life Technologies) without any antibiotics. The macrophages were seeded in 96-well plates at a density of approximately 5×10^5 cells/flask, incubated overnight, and were induced by 50 nM phorbol 12-myristate 13-acetate (PMA) to achieve macrophage differentiated phenotypesat 37° C./48-72 hr/5% CO2 atmosphere. After 48 hr of activation, the THP-1 macrophages were infected with respective NTM strains at a multiplicity of infection (MOI) of 1:10/2 h at 37° C. with 5% CO2. The macrophage monolayers were washed twice with […] of phosphate-buffered saline (+Ca^2++Mg^2+) to remove the free bacteria. Sets of triplicate wells were lysed (0.05% SDS) at specific timepoints, and enumerated to estimate the numbers of intracellular NTM 2 h post-infection.
(§2) The residual intracellular viable mycobacteria were enumerated at 0, 3, 5, and 7 day on Middlebrook 7H11 agar plates. […] Inhibitory sigmoidal curves were generated by plotting the log10 cfu/ml against the Cbroth/MIC ratio and the AUC/MIC ratio.

[18] = system: M. gordonae in THP-1 macrophages; experiment: Intracellular efficacy in THP-1 macrophages; format: cell-based, Mycobacterium gordonae
Experimental: as §1, §2

[19] = system: M. intracellulare in THP-1 macrophages; experiment: Intracellular efficacy in THP-1 macrophages; format: cell-based, Mycobacterium intracellulare
Experimental: as §1, §2

[20] = system: M. kansasii in THP-1 macrophages; experiment: Intracellular efficacy in THP-1 macrophages; format: cell-based, Mycobacterium kansasii
Experimental: as §1, §2

[21] = system: M. nonchromogenicum in THP-1 macrophages; experiment: Intracellular efficacy in THP-1 macrophages; format: cell-based, Mycobacterium nonchromogenicum
Experimental: as §1, §2

[22] = system: M. abscessus in THP-1 macrophages; experiment: Intracellular efficacy in THP-1 macrophages; format: cell-based, Mycobacterium abscessus; conditions: M.abscessess in THP-1 macrophages
Experimental: as §1, §2

[23] = system: M. avium in THP-1 macrophages; experiment: Intracellular efficacy in THP-1 macrophages; format: cell-based, Mycobacterium avium
Experimental: as §1, §2

[24] = M.nonchromogenicum, read-out: MBC
[25] = M.nonchromogenicum, read-out: MIC

Row | Structure (SMILES) | MIC [1] | Outcome [1] | MBC [3] | MIC [5] | MBC [6] | MIC [7] | MBC [8] | MBC [9] | MIC [10] | MBC [11] | MBC [12] | MIC [13] | MIC [14] | MIC [15] | IC Emax (intracellular efficacy) [17] | IC Emax (intracellular efficacy) [18] | IC Emax (intracellular efficacy) [19] | IC Emax (intracellular efficacy) [21] | IC Emax (intracellular efficacy) [22] | IC Emax (intracellular efficacy) [23] | other results
1 | NCC[C@H](O)C(=O)N[C@@H]1C[C@H](N)[C@@H](O[C@H]2O[C@H](CN)[C@@H](O)[C@H](O)[C@H]2O)[C@H](O)[C@H]1O[C@H]1O[C@H](CO)[C@@H](O)[C@H](N)[C@H]1O [Amikacin] | 4 µg/mL | Additive (>0.5-4.0, addition or indifference) | 8 µg/mL (≈ 13.7 µM) | 1 µg/mL (≈ 1.71 µM) | 8 µg/mL (≈ 13.7 µM) | 2 µg/mL (≈ 3.42 µM) | 2 µg/mL (≈ 3.42 µM) | 16 µg/mL (≈ 27.3 µM) | 4 µg/mL (≈ 6.83 µM) | 2 µg/mL (≈ 3.42 µM) | 16 µg/mL (≈ 27.3 µM) | 2 µg/mL (≈ 3.42 µM) | 4 µg/mL (≈ 6.83 µM) | 2 µg/mL (≈ 3.42 µM) | – | – | – | – | – | – | FIC index [1]: 0.90; MBC [2]: 8 µg/mL (≈ 13.7 µM); MIC [4]: 4 µg/mL; FIC index [4]: 0.80; Outcome [4]: Additive (>0.5-4.0, addition or indifference); MIC [16]: 2 µg/mL (≈ 3.42 µM)
2 | CC[C@H]1OC(=O)[C@H](C)[C@@H](O[C@H]2C[C@@](C)(OC)[C@@H](O)[C@H](C)O2)[C@H](C)[C@@H](O[C@@H]2O[C@H](C)C[C@H](N(C)C)[C@H]2O)[C@](C)(OC)C[C@@H](C)C(=O)[C@H](C)[C@@H](O)[C@]1(C)O [Clarithromycin] | 1 µg/mL | Synergy (≤0.5, synergism) | 2 µg/mL (≈ 2.67 µM) | 0.13 µg/mL (≈ 0.174 µM) | 1 µg/mL (≈ 1.34 µM) | 32 µg/mL (≈ 42.8 µM) | 0.5 µg/mL (≈ 0.668 µM) | 2 µg/mL (≈ 2.67 µM) | 0.5 µg/mL (≈ 0.668 µM) | > 32 µg/mL | 32 µg/mL (≈ 42.8 µM) | 0.5 µg/mL (≈ 0.668 µM) | 2 µg/mL (≈ 2.67 µM) | 0.5 µg/mL (≈ 0.668 µM) | 0.35 log10 cfu/ml | 1.26 log10 cfu/ml | 1.78 log10 cfu/ml | 0.82 log10 cfu/ml | 0.70 log10 cfu/ml | 1.00 log10 cfu/ml | FIC index [1]: 0.46; MBC [2]: 4 µg/mL (≈ 5.35 µM); MIC [4]: 1 µg/mL; FIC index [4]: 0.46; Outcome [4]: Synergy (≤0.5, synergism); IC Emax (intracellular efficacy) [20]: 0.91 log10 cfu/ml; MIC [16]: 0.25 µg/mL (≈ 0.334 µM)
3 | COc1c(N2C[C@@H]3CCCN[C@@H]3C2)c(F)cc2c(=O)c(C(=O)O)cn(C3CC3)c12 [Moxifloxacin] | – | – | 8 µg/mL (≈ 19.9 µM) | 0.5 µg/mL (≈ 1.25 µM) | 4 µg/mL (≈ 9.96 µM) | < 0.06 µg/mL | 1 µg/mL (≈ 2.49 µM) | 8 µg/mL (≈ 19.9 µM) | 2 µg/mL (≈ 4.98 µM) | 0.25 µg/mL (≈ 0.623 µM) | 4 µg/mL (≈ 9.96 µM) | 2 µg/mL (≈ 4.98 µM) | 2 µg/mL (≈ 4.98 µM) | 4 µg/mL (≈ 9.96 µM) | 1.60 log10 cfu/ml | 1.23 log10 cfu/ml | 1.46 log10 cfu/ml | 0.34 log10 cfu/ml | 1.00 log10 cfu/ml | 1.00 log10 cfu/ml | MBC [2]: 16 µg/mL (≈ 39.9 µM); IC Emax (intracellular efficacy) [20]: 1.93 log10 cfu/ml; MIC [16]: 2 µg/mL (≈ 4.98 µM)
4 | CO[C@H]1/C=C/O[C@@]2(C)Oc3c(C)c(O)c4c(O)c(c(/C=N/N5CCN(C)CC5)c(O)c4c3C2=O)NC(=O)/C(C)=C\C=C\[C@H](C)[C@H](O)[C@@H](C)[C@@H](O)[C@@H](C)[C@H](OC(C)=O)[C@@H]1C [Rifampicin] | 0.5 µg/mL | Synergy (≤0.5, synergism) | 1 µg/mL (≈ 1.22 µM) | 0.06 µg/mL (≈ 0.0729 µM) | 8 µg/mL (≈ 9.72 µM) | 4 µg/mL (≈ 4.86 µM) | 0.25 µg/mL (≈ 0.304 µM) | 16 µg/mL (≈ 19.4 µM) | 0.13 µg/mL (≈ 0.158 µM) | > 32 µg/mL | 32 µg/mL (≈ 38.9 µM) | 0.25 µg/mL (≈ 0.304 µM) | 16 µg/mL (≈ 19.4 µM) | 0.25 µg/mL (≈ 0.304 µM) | 0.00 log10 cfu/ml | 1.36 log10 cfu/ml | 0.44 log10 cfu/ml | 0.82 log10 cfu/ml | 0.00 log10 cfu/ml | 1.04 log10 cfu/ml | MBC [2, 24]: 32 µg/mL (≈ 38.9 µM); MIC [4]: 0.5 µg/mL; Outcome [4]: Additive (>0.5-4.0, addition or indifference); MIC [16, 25]: 0.13 µg/mL (≈ 0.158 µM)
5 | C=C(NC(=O)C(=C)NC(=O)c1csc(C2=N[C@@H]3c4csc(n4)[C@H]4NC(=O)c5csc(n5)[C@H]([C@](C)(O)[C@@H](C)O)NC(=O)[C@H]5CSC(=N5)/C(=C/C)NC(=O)[C@H]([C@@H](C)O)NC(=O)c5csc(n5)[C@]3(CC2)NC(=O)[C@H](C)NC(=O)C(=C)NC(=O)[C@H](C)NC(=O)[C@H]([C@@H](C)CC)N[C@@H]2C=Cc3c([C@H](C)O)cc(nc3[C@H]2O)C(=O)O[C@@H]4C)n1)C(N)=O [Thiostrepton] | – | – | 2 µg/mL (≈ 1.2 µM) | 0.13 µg/mL (≈ 0.0781 µM) | 2 µg/mL (≈ 1.2 µM) | 2 µg/mL (≈ 1.2 µM) | 1 µg/mL (≈ 0.601 µM) | 16 µg/mL (≈ 9.61 µM) | 1 µg/mL (≈ 0.601 µM) | > 32 µg/mL | 32 µg/mL (≈ 19.2 µM) | 0.5 µg/mL (≈ 0.3 µM) | 0.5 µg/mL (≈ 0.3 µM) | 1 µg/mL (≈ 0.601 µM) | 0.00 log10 cfu/ml | 0.72 log10 cfu/ml | 0.67 log10 cfu/ml | 0.49 log10 cfu/ml | 0.00 log10 cfu/ml | 1.19 log10 cfu/ml | MBC [2, 24]: 16 µg/mL (≈ 9.61 µM); IC Emax (intracellular efficacy) [20]: 1.56 log10 cfu/ml; MIC [16, 25]: 0.5 µg/mL (≈ 0.3 µM)
